pIC50: −log10 of the molar value. Values joined by “and” are separate entries in the source; they are usually repeats but may differ in a detail not shown here. Identical values can stand only once. Like-named read-outs stand apart in the source and are kept apart here.
Assays:
[1] = system: T. b. brucei GVR35; parameters: method as in PMID 19620327; conditions: cited from earlier work
[2] = Plasma pharmacokinetics in infected vervet monkeys (HPLC-MS/MS); assay type: in vivo, vervet monkey; conditions: for AUClast: last measurable concentration varied (112–490 days); for CL/F: read-out: Cl/F (apparent clearance) (converted)
From the text: (§1) Parasitaemia post-infection was monitored daily, using ear-prick capillary blood, through the completion of DB868 and DB829 treatment. Following the last drug dose (LDD), blood and CSF samples were examined for trypanosomes at 1, 4, 7, and 14 days to determine the end of treatment (EoT) response; monkeys which were positive for trypanosomes in either blood or CSF at the end of this 14-day period were classified as treatment failures/not cured while those that were free of trypanosomes were classified as provisionally cured. After the 14-day EoT evaluations, parasitaemia examinations were continued twice weekly to ≥ 300 days post-LDD as described previously. Additionally, physical examinations and haematological assessments were carried out once weekly up to 28 days post-LDD, once every two weeks between 28 and 100 days post-LDD, and monthly thereafter until the end of the study as described previously. At 300 days post-LDD, monkeys were considered cured if they remained normal clinically and parasite-free in the blood and CSF. Pharmacokinetic outcomes were monitored for a minimum of 60 days post-LDD as described previously. To facilitate the collection of blood and CSF for these assessments, the monkeys were anaesthetised with an IM injection of ketamine HCl (10–15 mg/kg) and diazepam (0.5 mg/kg). Monkeys that relapsed, characterized by trypanosome recrudescence in the blood or CSF, were rescue-treated with melarsoprol. Melarsoprol (Mel B), supplied by the World Health Organization as a 3.6% (w/v) solution in propylene glycol, was administered intravenously at 3.6 mg/kg/day for 4 consecutive days.
(§2) Plasma samples were processed for quantification of DB868 and DB829 by high performance liquid chromatography-tandem mass spectrometry (HPLC-MS/MS) as described previously. CSF samples were processed in a manner similar to that of plasma samples.
Clinical and haematological data were analysed using Statview for Windows Version 5.0.1 (1995–1998; SAS Institute Inc., Cary, NC, USA). Repeated measures ANOVA, with Fisher’s PLSD post hoc test, was used to test the effect of trypanosome infection on haematologic parameters in comparison with respective baseline values (α = 0.05). In addition, the effects of IM DB829 and oral DB868 on these haematologic parameters in monkeys with confirmed second stage HAT were tested. Pharmacokinetic outcomes were recovered using traditional non-compartmental methods using Phoenix WinNonlin (version 6.2; Pharsight, Mountain View, CA, USA).

[3] = Tolerability of dose regimens in infected vervet monkeys; assay type: in vivo, vervet monkey; conditions: all IM DB829 and oral DB868 dose regimens
From the text: as §1, with “Monkeys that relapsed, characterized by trypanosome recrudescence in the blood or CSF, were rescue-treated with melarsoprol. Melarsoprol (Mel B), supplied by the World Health Organization as a 3.6% (w/v) solution in propylene glycol, was administered intravenously at 3.6 mg/kg/day for 4 consecutive days.” left out

[4] = system: T. b. rhodesiense STIB900; parameters: method as in PMID 19620327; conditions: read-out: in vitro IC50; cited from earlier work
[5] = CSF DB829 concentrations in infected vervet monkeys; assay type: in vivo, vervet monkey; conditions: for concentration at 1 h: 5 mg/kg/day, read-out: geometric mean CSF DB829 concentration
From the text: Parasitaemia post-infection was monitored daily, using ear-prick capillary blood, through the completion of DB868 and DB829 treatment. […] At 300 days post-LDD, monkeys were considered cured if they remained normal clinically and parasite-free in the blood and CSF. Pharmacokinetic outcomes were monitored for a minimum of 60 days post-LDD as described previously. […] Monkeys that relapsed, characterized by trypanosome recrudescence in the blood or CSF, were rescue-treated with melarsoprol.
as §2

[6] = IM DB829 consecutive-day dosing
[7] = after 5th IM dose, Group 1 = 5 mg/kg × 5 consecutive days, 5 mg/kg
[8] = after 5th IM dose, Group 3 = 2.5 mg/kg × 5 consecutive days, 2.5 mg/kg

SMILES: N=C(N)c1ccc(-c2ccc(-c3ccc(C(=N)N)cn3)o2)nc1 [DB829, 2,5-bis(5-amidino-2-pyridyl)furan]
- efficacy in the murine model of second stage HAT [1]: fully curative
- geometric mean plasma Cmax of DB829 relative to that after oral DB868 at 20 mg/kg/day ([2]; IM DB829 2.5 mg/kg/day): 10 times
- AUC, alternate-day relative to consecutive-day dosing regimen ([2]; IM DB829 5 mg/kg/day): 5 fold
- geometric mean plasma Cmax of DB829 relative to that after oral DB868 at 20 mg/kg/day ([2]; IM DB829 5 mg/kg/day, after last of 5 doses): 25 fold
- terminal half-life, alternate-day relative to consecutive-day dosing regimen ([2]; IM DB829 5 mg/kg/day, 5 mg/kg/day): 4 fold and 5 fold
- median plasma Tmax ([2]; IM DB829 2.5 and 5 mg/kg/day consecutive-day dose groups): 0.04 days
- geometric mean AUC, 5 mg/kg/day group relative to 2.5 mg/kg/day group [2, 6]: 2.1 fold
- geometric mean Cmax, 5 mg/kg/day group relative to 2.5 mg/kg/day group [2, 6]: 2.7 fold
- AUC0-∞ [2, 7]: 13000 nmol·days/L and 15000 nmol·days/L
- Cl/F (apparent clearance) [2, 7]: 0.528 mL/min/kg
- t½ (terminal half-life) [2, 7]: 44 days
- AUClast [2, 7]: 12000 nmol·days/L and 13000 nmol·days/L
- t½ (terminal half-life) ([2]; after 5th IM dose, Group 2 = 5 mg/kg × 5 alternating days, 5 mg/kg): 180 days
- AUC0-∞ [2, 8]: 8300 nmol·days/L and 5300 nmol·days/L
- Cl/F (apparent clearance) [2, 8]: 0.694 mL/min/kg
- t½ (terminal half-life) [2, 8]: 42 days
- AUClast [2, 8]: 7700 nmol·days/L and 4500 nmol·days/L
- geometric mean AUC0–63 of DB829 relative to single monkey of 3 mg/kg/day group ([2]; after oral DB868 10 mg/kg/day): approximately 3 fold
- geometric mean AUC0–63 of DB829 relative to single monkey of 3 mg/kg/day group ([2]; after oral DB868 20 mg/kg/day): ~4 fold
- CL/F ([2]; monkey, in vivo, im, 2.5 mg/kg, after 5th IM dose, Group 3 = 2.5 mg/kg × 5 consecutive days): 0.465 mL/min/kg
- half-life ([2]; monkey, in vivo, im, 2.5 mg/kg, after 5th IM dose, Group 3 = 2.5 mg/kg × 5 consecutive days, read-out: t½ (terminal half-life) (converted)): 33 days
- Cmax ([2]; monkey, in vivo, im, 2.5 mg/kg, plasma DB829 after 5th IM dose, Group 3 = 2.5 mg/kg × 5 consecutive days, read-out: Cmax): 4200 nM
- Tmax ([2]; monkey, in vivo, im, 2.5 mg/kg, plasma DB829 after 5th IM dose, Group 3 = 2.5 mg/kg × 5 consecutive days, read-out: Tmax (converted)): 0.04 days
- CL/F ([2]; monkey, in vivo, im, 5 mg/kg, after 5th IM dose, Group 1 = 5 mg/kg × 5 consecutive days): 0.59 mL/min/kg
- half-life ([2]; monkey, in vivo, im, 5 mg/kg, after 5th IM dose, Group 1 = 5 mg/kg × 5 consecutive days, read-out: t½ (terminal half-life) (converted)): 34 days
- half-life ([2]; monkey, in vivo, im, 5 mg/kg, after 5th IM dose, Group 2 = 5 mg/kg × 5 alternating days, read-out: t½ (terminal half-life) (converted)): 130 days
- Cmax ([2]; monkey, in vivo, im, 5 mg/kg, plasma DB829 after 5th IM dose, Group 1 = 5 mg/kg × 5 consecutive days, read-out: Cmax): 12000 nM
- Tmax ([2]; monkey, in vivo, im, 5 mg/kg, plasma DB829 after 5th IM dose, Group 1 = 5 mg/kg × 5 consecutive days, read-out: Tmax (converted)): 0.04 days
- Cmax ([2]; monkey, in vivo, im, 5 mg/kg, plasma DB829 after 5th IM dose, Group 2 = 5 mg/kg × 5 alternating days, read-out: Cmax): 16000 nM
- Tmax ([2]; monkey, in vivo, im, 5 mg/kg, plasma DB829 after 5th IM dose, Group 2 = 5 mg/kg × 5 alternating days, read-out: Tmax (converted)): 0.04 days
- half-life ([2]; monkey, in vivo, im, IM DB829 consecutive-day dosing regimens, read-out: geometric mean (range) terminal half-life (t½) (converted)): 38 days
- Cmax ([2]; monkey, in vivo, po, 3 mg/kg/day, after oral DB868 3 mg/kg/day, read-out: Geometric mean Cmax (range) of DB829): 85 nM
- Cmax ([2]; monkey, in vivo, po, 3 mg/kg/day, plasma DB829 after the 10th oral dose of DB868, 3 mg/kg × 10 days, read-out: Cmax): 60 nM
- Cmax ([2]; monkey, in vivo, po, 10 mg/kg/day, after oral DB868 10 mg/kg/day, read-out: Geometric mean Cmax (range) of DB829): 270 nM
- Cmax ([2]; monkey, in vivo, po, 10 mg/kg/day, plasma DB829 after the 10th oral dose of DB868, 10 mg/kg × 10 days, read-out: Cmax): 410 nM
- half-life ([2]; monkey, in vivo, po, 10 mg/kg/day, plasma DB829 after the 10th oral dose of DB868, 10 mg/kg × 10 days, read-out: t½ (converted)): 120 days
- Cmax ([2]; monkey, in vivo, po, 20 mg/kg/day, after oral DB868 20 mg/kg/day, read-out: Geometric mean Cmax (range) of DB829): 530 nM
- Cmax ([2]; monkey, in vivo, po, 20 mg/kg/day, plasma DB829 after the 10th oral dose of DB868, 20 mg/kg × 10 days, read-out: Cmax): 460 nM
- Tmax ([2]; monkey, in vivo, po, after oral DB868, three treatment groups, read-out: Median plasma Tmax for DB829 (converted)): 0.33 days
- Tmax ([2]; monkey, in vivo, po, after oral DB868, three treatment groups, read-out: range of plasma Tmax for DB829): 0.04 to 2 days
- half-life ([2]; monkey, in vivo, po, given IM or orally as DB868, range over monkeys, read-out: half-life for DB829): 33 to 180 days
- Cmax ([2]; plasma DB829 after 5th IM dose, Group 1 = 5 mg/kg × 5 consecutive days, 5 mg/kg, read-out: Cmax): 15000 nM
- Cmax ([2]; plasma DB829 after 5th IM dose, Group 2 = 5 mg/kg × 5 alternating days, 5 mg/kg, read-out: Cmax): 8900 nM
- Cmax ([2]; plasma DB829 after 5th IM dose, Group 3 = 2.5 mg/kg × 5 consecutive days, 2.5 mg/kg, read-out: Cmax): 5900 nM
- Tmax ([2]; plasma DB829 after the 10th oral dose of DB868, 3 mg/kg × 10 days): 0.33 days
- AUC0–63 ([2]; plasma DB829 after the 10th oral dose of DB868, 3 mg/kg × 10 days, 0 to 63 days): 1800 nmol·days/L
- Cmax ([2]; plasma DB829 after the 10th oral dose of DB868, 3 mg/kg × 10 days, read-out: Cmax): 110 nM
- Cmax ([2]; plasma DB829 after the 10th oral dose of DB868, 10 mg/kg × 10 days, read-out: Cmax): 340 nM
- Cmax ([2]; plasma DB829 after the 10th oral dose of DB868, 20 mg/kg × 10 days, read-out: Cmax): 630 nM and 500 nM
- tolerability of dose regimens [3]: well tolerated
- pIC50 [4]: 7.85
- CSF DB829 concentration ([5]; IM 2.5 mg/kg/day consecutive-day dose group, limit of quantification 5 nmol/L): < 5 nmol/L
- geometric mean CSF DB829 concentration ([5]; IM 5 mg/kg/day alternate-day dose group, 1 h post-LDD): ~7.3 nmol/L
- CSF DB829 concentration ([5]; IM 5 mg/kg/day consecutive-day dose group, by 28 days post-LDD): below the limit of quantification
- time DB829 CSF concentrations maintained above 5 nmol/L ([5]; IM 5 mg/kg/day regimens): 2–28 days post-LDD
- concentration at 1 h ([5]; monkey, CSF, intramuscular, IM 5 mg/kg/day alternate-day dose group, 1 h post-LDD): 7.3 nM
- concentration at 1 h ([5]; monkey, CSF, intramuscular, IM 5 mg/kg/day consecutive-day dose group, 1 h post-LDD): 14 nM
- Kp at 1 h ([5]; monkey, CSF, intramuscular, IM 5 mg/kg/day, either regimen, 1 h post-LDD, read-out: CSF concentration as share of total (bound + unbound) plasma concentration): ~0.001
- CSF DB829 concentration ([5]; monkeys treated with oral DB868): not quantifiable
